Tested on: 953936-095-R-J2-PDC spheroids with HUVEC/MSC, viability
Experiment: Anticancer human tumor 953936-095-R-J2-PDC patient-derived cervical squamous cell carcinoma cell line growth inhibition [PI3K]
Conditions: for IC50: curve of first compound; for viability, T/C: stronger effect = lower value
Text: Combinatorial screen of targeted agents with the PI3K inhibitors inavolisib, alpelisib, duvelisib, and copanlisib in multi-cell type tumor spheroids
A high-throughput screen of multi-cell type tumor spheroids was designed to identify active combinations of targeted small molecules and PI3K pathway inhibitors. Complex spheroids include a stromal component modeled by human endothelial cells (HUVEC) and fibroblasts modeled by human mesenchymal stem cells (MSCs). The concentration ranges selected for each drug and investigational agent were based upon clinically achievable concentrations if the clinical Cmax of the agent was known.
Compounds. The drugs and investigational agents: inavolisib (NSC800729), alpelisib (NSC765974), duvelisib (NSC772469), copanlisib (NSC816437), ipatasertib (NSC767898), afuresertib (NSC778305), talazoparib (NSC767125), sapanisertib (NSC764658), selumetinib (NSC741078), tovorafenib (DAY101, NSC766906), vemurafenib (NSC761431), ravoxertinib (NSC781343), sotorasib (NSC818433), MRTX1133 (NSC 836407), abemaciclib (NSC 768073), palbociclib (NSC758247), venetoclax (NSC 766270), SY5609 (NSC837396), enzalutamide (NSC755605), and darolutamide (NSC825331), were obtained from the National Cancer Institute (NCI) Developmental Therapeutics Program Chemical Repository. The FDA-approved anticancer drug set is available from the NCI Developmental Therapeutics Program. […] The stock solutions were prepared in dimethyl sulfoxide (DMSO, Sigma-Aldrich, St. Louis, MO, cat. D2650) at 800-fold the tested concentration and stored at -70 degrees C prior to their use. All drugs and investigational agents were tested over a range starting from a high concentration at or near the clinical Cmax and decreasing in half-log increments. If the clinical Cmax for an agent had not been determined, the highest concentration tested was 10 microM.
Cell Culture. All cells were maintained in an incubator at 37 degrees C and 5% CO2 with 95% humidity. The PDC lines were cultured according to standard operating procedures established by the NCI PDMR (https://pdmr.cancer.gov/sops/default.htm). All PDCs were thawed and cultured in Matrigel-coated flasks prepared with a working solution of 1X Ham's F-12 nutrient mix, without supplementation (Invitrogen, Waltham, MA, cat. 11765054), 100 U/mL penicillin-streptomycin (Invitrogen, cat. 15140122), and 2.5% Matrigel (Corning Inc., Corning, NY, cat. 354248) for the first three passages. The 354836-022-R-J1-PDC, 475296-252-R-J1-PDC, and 997726-040-R-J2-PDC lines were cultured in 6A media, which includes advanced DMEM/F-12 (Thermo Fisher Scientific, cat. 12634028), 10 mM HEPES (Thermo Fisher Scientific, cat. 15630080), 1X GlutaMAX supplement (Thermo Fisher Scientific, cat. 35050061), 0.1 mg/mL primocin (InvivoGen, San Diego, CA, cat. ant-pm-2), 10% defined fetal bovine serum, heat inactivated (HyClone Laboratories Inc., Logan, UT, cat. SH30070.03HI), 50% L-WRN conditioned media (ATCC, cat. CRL-3276), 1.25 mM N-Acetyl-L-cysteine (Sigma-Aldrich, cat. A9165), 10 mM nicotinamide (Sigma-Aldrich, cat. N0636), 1X B-27 supplement (Thermo Fisher Scientific, cat. 17504044), 1X N-2 supplement (Thermo Fisher Scientific, cat. 17502048), and 10 microM Y-27632 dihydrochloride (Tocris Bioscience, Bristol, United Kingdom, cat. 1254). The 624824-186-R-J2-PDC line was cultured in 6C/Colon 1B media, which includes all 6A media components plus 50 ng/mL human EGF recombinant protein (Thermo Fisher Scientific, cat. PHG0311). […]

[1] = second compound 0.00316 µM, first compound 0.0316 µM
[2] = second compound 0.00316 µM, first compound 0.1 µM
[3] = second compound 0.00316 µM, first compound 0.316 µM
[4] = second compound 0.00316 µM, first compound 1 µM
[5] = second compound 0.00316 µM, first compound 3.16 µM
[6] = second compound 0.00316 µM, first compound 10 µM
[7] = second compound 0.01 µM, first compound 0.0316 µM
[8] = second compound 0.01 µM, first compound 0.1 µM
[9] = second compound 0.01 µM, first compound 0.316 µM
[10] = second compound 0.01 µM, first compound 1 µM
[11] = second compound 0.01 µM, first compound 3.16 µM
[12] = second compound 0.01 µM, first compound 10 µM
[13] = second compound 0.0316 µM, first compound 0.0316 µM
[14] = second compound 0.0316 µM, first compound 0.1 µM
[15] = second compound 0.0316 µM, first compound 0.316 µM
[16] = second compound 0.0316 µM, first compound 1 µM
[17] = second compound 0.0316 µM, first compound 3.16 µM
[18] = second compound 0.0316 µM, first compound 10 µM
[19] = second compound 0.1 µM, first compound 0.0316 µM
[20] = second compound 0.1 µM, first compound 0.1 µM
[21] = second compound 0.1 µM, first compound 0.316 µM
[22] = second compound 0.1 µM, first compound 1 µM
[23] = second compound 0.1 µM, first compound 3.16 µM
[24] = second compound 0.1 µM, first compound 10 µM
[25] = second compound 0.316 µM, first compound 0.0316 µM
[26] = second compound 0.316 µM, first compound 0.1 µM
[27] = second compound 0.316 µM, first compound 0.316 µM
[28] = second compound 0.316 µM, first compound 1 µM
[29] = second compound 0.316 µM, first compound 3.16 µM
[30] = second compound 0.316 µM, first compound 10 µM
[31] = second compound 1 µM, first compound 0.0316 µM
[32] = second compound 1 µM, first compound 0.1 µM
[33] = second compound 1 µM, first compound 0.316 µM
[34] = second compound 1 µM, first compound 1 µM
[35] = second compound 1 µM, first compound 3.16 µM
[36] = second compound 1 µM, first compound 10 µM
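Further: spheroids exposed to compounds for seven days before read-out.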

C=CC(=O)N1CCN(c2nc(=O)n(-c3c(C)ccnc3C(C)C)c3nc(-c4c(O)cccc4F)c(F)cc23)C(C)C1 (stereo not drawn) + CC(Nc1ccc2c(c1)OCCn1cc(N3C(=O)OCC3C(F)F)nc1-2)C(N)=O
IC50 (second compound 0.00316 µM): > 10000 nM
IC50 (second compound 0.01 µM): > 10000 nM
IC50 (second compound 0.0316 µM): > 10000 nM
IC50 (second compound 0.1 µM): > 10000 nM
IC50 (second compound 0.316 µM): < 31.6 nM
IC50 (second compound 1 µM): < 31.6 nM
viability, T/C [1]: 94.8%
viability, T/C [2]: 94.5%
viability, T/C [3]: 99.9%
viability, T/C [4]: 110%
viability, T/C [5]: 114%
viability, T/C [6]: 112%
viability, T/C [7]: 86.8%
viability, T/C [8]: 91.3%
viability, T/C [9]: 101%
viability, T/C [10]: 101%
viability, T/C [11]: 116%
viability, T/C [12]: 108%
viability, T/C [13]: 80%
viability, T/C [14]: 82.5%
viability, T/C [15]: 89.5%
viability, T/C [16]: 98.6%
viability, T/C [17]: 90.4%
viability, T/C [18]: 94.1%
viability, T/C [19]: 60.2%
viability, T/C [20]: 56.2%
viability, T/C [21]: 61.4%
viability, T/C [22]: 72.3%
viability, T/C [23]: 77.7%
viability, T/C [24]: 69.2%
viability, T/C [25]: 37.1%
viability, T/C [26]: 35.3%
viability, T/C [27]: 34.9%
viability, T/C [28]: 42%
viability, T/C [29]: 39.6%
viability, T/C [30]: 35.9%
viability, T/C [31]: 21.4%
viability, T/C [32]: 25.3%
viability, T/C [33]: 23.2%
viability, T/C [34]: 24.5%
viability, T/C [35]: 22.5%
viability, T/C [36]: 19.6%

CC(Cn1ccc(-c2ccc(C#N)c(Cl)c2)n1)NC(=O)c1cc(C(C)O)[nH]n1 (stereo not drawn) + CC(Nc1ccc2c(c1)OCCn1cc(N3C(=O)OCC3C(F)F)nc1-2)C(N)=O
IC50 (second compound 0.00316 µM): > 10000 nM
IC50 (second compound 0.01 µM): > 10000 nM
IC50 (second compound 0.0316 µM): > 10000 nM
IC50 (second compound 0.1 µM): > 10000 nM
IC50 (second compound 0.316 µM): < 31.6 nM
IC50 (second compound 1 µM): < 31.6 nM
viability, T/C [1]: 86.4%
viability, T/C [2]: 92.7%
viability, T/C [3]: 94%
viability, T/C [4]: 97.8%
viability, T/C [5]: 105%
viability, T/C [6]: 107%
viability, T/C [7]: 87.7%
viability, T/C [8]: 90.9%
viability, T/C [9]: 92.1%
viability, T/C [10]: 91.5%
viability, T/C [11]: 86.6%
viability, T/C [12]: 95.1%
viability, T/C [13]: 84.3%
viability, T/C [14]: 76.1%
viability, T/C [15]: 74.7%
viability, T/C [16]: 84.5%
viability, T/C [17]: 81.7%
viability, T/C [18]: 82.6%
viability, T/C [19]: 58.1%
viability, T/C [20]: 56.3%
viability, T/C [21]: 54.6%
viability, T/C [22]: 54.4%
viability, T/C [23]: 61.3%
viability, T/C [24]: 56.5%
viability, T/C [25]: 34.3%
viability, T/C [26]: 32.5%
viability, T/C [27]: 32.6%
viability, T/C [28]: 36.2%
viability, T/C [29]: 38.4%
viability, T/C [30]: 34.6%
viability, T/C [31]: 21.8%
viability, T/C [32]: 21.7%
viability, T/C [33]: 20.9%
viability, T/C [34]: 26.6%
viability, T/C [35]: 22.6%
viability, T/C [36]: 24.1%

Cn1ncc(Cl)c1-c1cc(C(=O)NC(CN)Cc2cccc(F)c2)sc1Cl (stereo not drawn) + CC(Nc1ccc2c(c1)OCCn1cc(N3C(=O)OCC3C(F)F)nc1-2)C(N)=O
IC50 (second compound 0.00316 µM): 618 nM
IC50 (second compound 0.01 µM): 499 nM
IC50 (second compound 0.0316 µM): 323 nM
IC50 (second compound 0.1 µM): 181 nM
IC50 (second compound 0.316 µM): < 31.6 nM
IC50 (second compound 1 µM): < 31.6 nM
viability, T/C [1]: 83.3%
viability, T/C [2]: 84.3%
viability, T/C [3]: 62.6%
viability, T/C [4]: 40.2%
viability, T/C [5]: 19.1%
viability, T/C [6]: 11%
viability, T/C [7]: 90.4%
viability, T/C [8]: 87.3%
viability, T/C [9]: 58.1%
viability, T/C [10]: 35.1%
viability, T/C [11]: 17.7%
viability, T/C [12]: 12.6%
viability, T/C [13]: 78.3%
viability, T/C [14]: 71.3%
viability, T/C [15]: 49.7%
viability, T/C [16]: 27.6%
viability, T/C [17]: 15.5%
viability, T/C [18]: 9.96%
viability, T/C [19]: 66.6%
viability, T/C [20]: 61.7%
viability, T/C [21]: 38.8%
viability, T/C [22]: 25.7%
viability, T/C [23]: 13.6%
viability, T/C [24]: 10.5%
viability, T/C [25]: 36.1%
viability, T/C [26]: 37.1%
viability, T/C [27]: 28%
viability, T/C [28]: 17.1%
viability, T/C [29]: 12.9%
viability, T/C [30]: 7.57%
viability, T/C [31]: 22.1%
viability, T/C [32]: 22.5%
viability, T/C [33]: 18.8%
viability, T/C [34]: 13.8%
viability, T/C [35]: 10.4%
viability, T/C [36]: 5.59%

Cn1nccc1Nc1nccc(-c2ccn(C(CO)c3ccc(Cl)c(F)c3)c(=O)c2)n1 (stereo not drawn) + CC(Nc1ccc2c(c1)OCCn1cc(N3C(=O)OCC3C(F)F)nc1-2)C(N)=O
IC50 (second compound 0.00316 µM): > 10000 nM
IC50 (second compound 0.01 µM): > 10000 nM
IC50 (second compound 0.0316 µM): > 10000 nM
IC50 (second compound 0.1 µM): 383 nM
IC50 (second compound 0.316 µM): < 31.6 nM
IC50 (second compound 1 µM): < 31.6 nM
viability, T/C [1]: 86.2%
viability, T/C [2]: 87%
viability, T/C [3]: 93.8%
viability, T/C [4]: 95.1%
viability, T/C [5]: 80.4%
viability, T/C [6]: 71.7%
viability, T/C [7]: 84.4%
viability, T/C [8]: 94%
viability, T/C [9]: 88.8%
viability, T/C [10]: 77.1%
viability, T/C [11]: 78.8%
viability, T/C [12]: 70%
viability, T/C [13]: 75.2%
viability, T/C [14]: 68.8%
viability, T/C [15]: 70.1%
viability, T/C [16]: 72%
viability, T/C [17]: 65.1%
viability, T/C [18]: 61.9%
viability, T/C [19]: 62.1%
viability, T/C [20]: 52.7%
viability, T/C [21]: 51.3%
viability, T/C [22]: 46.5%
viability, T/C [23]: 47.8%
viability, T/C [24]: 40.1%
viability, T/C [25]: 36.3%
viability, T/C [26]: 32.8%
viability, T/C [27]: 31%
viability, T/C [28]: 28.4%
viability, T/C [29]: 24%
viability, T/C [30]: 19.5%
viability, T/C [31]: 21.9%
viability, T/C [32]: 20.9%
viability, T/C [33]: 18%
viability, T/C [34]: 15.1%
viability, T/C [35]: 12.6%
viability, T/C [36]: 8.88%

Source: PubChem BioAssay AID1963971 (Molecular Pharmacology Branch, DTP, NCI, 2024)
